In US8334316B2, “Substituted organosulfur compounds and methods of using thereof” (ACEA Biosciences, Inc., priority 2004, dated 2012):
Several values for one entry are separate records, joined by “and”; a condition that tells them apart may be missing. Equal values may be shown once. Marks after values point to notes of the source that are not given here.

Legend:
[1] = tested on: HCT-8 human colon cancer; assay: HCT-8 human colon cancer xenograft in nude mice (Example 3); assay type: in vivo; conditions: for tumor inhibition rate %: vs solvent control
Text: Both male and female mice were used. […] Test control. […] Preparation and Administration of Test Compounds. […] For human tumor xenograft model, all used materials, including animal food, animal cage, supporting materials and apparatus contacted by animals, were high-pressure sterilized. Nude mice were maintained in laminar flow shelves under SPF condition. After tumor transplantation, mouse weight and tumor size in each compound dosage group were dynamically monitored and plotted.

[2] = tested on: ao10/17 human ovarian cancer; assay: ao10/17 human ovarian cancer xenograft in nude mice (Example 4); assay type: in vivo; conditions: for tumor inhibition rate %: vs solvent control
Description: Only female mice were used in this study. […] The high, middle and low doses of ACEA100108 were 50, […] and 8 mg/kg/d, respectively.
Preparation and Administration of Test Compounds. […] The high, middle and low dose of compound ACEA100108 was 50, 20 and 8 mg/kg, respectively.
The tumor tissues were grounded in normal saline (1:6 for tumor volume to saline volume) and tumor cell suspensions were prepared in the normal saline.
For the human ovarian cancer xenograft model, all used materials, including animal food, animal cage, supporting materials and apparatus contacted by animals, were high-pressure sterilized. Nude mice were maintained in laminar flow shelves under SPF condition. After tumor transplantation, mouse weight and tumor size in each compound dosage group were dynamically monitored and plotted. The tumor size was determined by measuring the major axis (a) and minor axis (b) of the tumor, and tumor volume was calculated according to the equation (3) in Example 3.

[3] = tested on: purified bovine brain tubulin; assay: In vitro microtubule assembly assay with pure (MAP-free) tubulin, light scattering OD400; assay type: biochemical
Description: Microtubule Assembly Assays. Microtubule seeds were synthesized by incubating purified bovine brain tubulin with 1 mM GTP, 10% glycerol and 10% DMSO at 35° C. for 30 minutes, followed by shearing by passing the assembled microtubules 6 times through a 27 gauge needle. Microtubule assembly was assayed by adding 27.5 ul of microtubule seeds to spectrophotometer cuvettes (maintained at 35° C.) containing 247.5 ul purified bovine brain tubulin in a PEM-100 buffer (100 mM Pipes pH=6.8, 1 mM […], 1 mM MgSO4) supplemented with 1 mM GTP (and drug where applicable) and monitoring the OD400 for 2 hours. Since the compounds are dissolved in DMSO and DMSO can have a significant effect on microtubule assembly, DMSO was added to all cuvettes so as to equal the largest volume of drug added to reactions. It should be noted that the initial velocity of the microtubule assembly reactions is so fast that one can not always catch the initial rise on the light scattering profile because it is occurring while samples are being prepared. However, all samples start at the same optical density, since they are identical with the exception of the drug being introduced.

[4] = tested on: mouse Lewis lung cancer; assay: In vivo antitumor efficacy, mouse Lewis lung cancer model, Example 3 (ACEA100108); conditions: for Inhibition rate (%): vs solvent control
Description: For human tumor xenograft models, cancer cells were passed twice in vivo before being transplanted into the nude mice for the study. Cultured human cancer cells in flask were first xenograft-transplanted in immunodeficient nude mice. After the cancer cells grew to a tumor of certain sizes in the nude mice, the tumor was removed form the nude mice and tumor tissues were dissected. The cell suspensions were prepared from the dissected tumor tissue and transplanted back to immunodeficient nude mice again (i.e. the second passage of cancer cells in human cancer xenograft-transplanted model). After the cancer cells grew to certain size, the tumor was removed from nude mice and the tumor tissues were dissected. The cell suspensions were prepared from dissected tissues and were used for the study of human cancer xenograft models described here.
Both male and female mice were used. However, for each experiment, animals of same sex were used. For the mouse transplanted tumor model, the numbers of animals tested were as follows: 10 for each dose group, 10 for positive control group and 20 for negative control group. For human tumor xenograft model, the numbers of animals tested were as follows: 6 for each dose group, 6 for positive control group and 12 for negative control group.
Test control. For negative control, each mouse was administered intravenously with the solvent only having the same volume and same concentration as those used in high dose ACEA100108 test, once a day, for 7 consecutive days. […] In a reference group, DBTS was administered intravenously at 50 mg/kg, once a day for 7 consecutive days.
Preparation and Administration of Test Compounds. […] Each time before use, this solution was diluted in normal saline to achieve desired ACEA100108 concentrations. Each mouse (about 20 g in weight) was administered intravenously with the compound solution of 0.5 mL at a controlled injection speed of 0.5 ml/0.5 min. 24 hrs after the tumor transplantation, intravenous injections of compound solutions into carrier mice were performed once a day, for consecutive 7 or 10 days.
Preparation of Tumor Cells for Transplantation and Determination of Compound Efficacy. To prepare the cancer cells for mouse Lewis lung cancer model, human breast cancer xenograft model and human colon cancer xenograft model, the fast growing tumors were first removed from the transplanted tumor mice. The tumor tissues were dissected and tumor cell suspensions were prepared in normal saline to have a concentration of 2-4×10^7 cells/ml. 0.2 ml of cell suspension was subcutaneously injected into the axillary region (right-side) of each mouse. […] Between two and four weeks after transplantation, mice were sacrificed and the transplanted tumors were removed from experimental mice.

[5] = 20 mg/kg/d iv x7 qd, 25 d (end)
[6] = 50 mg/kg/d iv x7 qd, 7 day after transplantation
[7] = 50 mg/kg/d iv x7 qd, 25 d (end)
[8] = 8 mg/kg iv x7 qd, 7 D after transplantation
[9] = 20 mg/kg iv x7 qd, 7 D after transplantation
[10] = 50 mg/kg iv x7 qd, 7 D after transplantation

Fc1ccc(CSSSCc2ccc(F)cc2)cc1 [ACEA100108, Di(p-fluorobenzyl)trisulfide]
Mouse Body weight ([1]; 20 mg/kg/d iv x7 qd, 21 d): 21.8 ± 1.2 g
Tumor volume (cm^3) ([1]; 20 mg/kg/d iv x7 qd, 21 d): 0.317 ± 0.05 cm^3
Mouse Body weight [1, 5]: 22.5 g and 22.5 ± 1 g
Tumor volume (cm^3) [1, 5]: 0.654 cm^3 and 0.654 ± 0.09 cm^3
tumor inhibition rate % ([1]; 20 mg/kg/d iv x7 qd): 28.10%
TV inhibition rate % T/C ([1]; 50 mg/kg/d iv x7 qd): 33.63%
Tumor weight ([1]; 50 mg/kg/d iv x7 qd): 0.832 ± 0.10 g
Mouse Body weight ([1]; 50 mg/kg/d iv x7 qd, 0 Day (beginning)): 18.3 g and 18.3 ± 1 g
Mouse Body weight ([1]; 50 mg/kg/d iv x7 qd, 7 d): 17.7 ± 1.2 g
Mice with palpable tumor / total mice [1, 6]: 6/6††
Tumor volume (cm^3) [1, 6]: 0.01 cm^3
Mouse Body weight ([1]; 50 mg/kg/d iv x7 qd, 14 d): 17.8 ± 2.3 g
Tumor volume (cm^3) ([1]; 50 mg/kg/d iv x7 qd, 14 d): 0.112 ± 0.02 cm^3
Mouse Body weight ([1]; 50 mg/kg/d iv x7 qd, 21 d): 19.5 ± 1.6 g
Tumor volume (cm^3) ([1]; 50 mg/kg/d iv x7 qd, 21 d): 0.236 ± 0.02 cm^3
Mouse Body weight [1, 7]: 20.3 g and 20.3 ± 1 g
Tumor volume (cm^3) [1, 7]: 0.525 cm^3 and 0.525 ± 0.14 cm^3
tumor inhibition rate % ([1]; 50 mg/kg/d iv x7 qd): 45.62%
Body weight of mice ([2]; 8 mg/kg iv x7 qd, 0 d (beginning)): 17.7 g and 17.7 ± 0.5 g
Mice with palpable tumor / total mice [2, 8]: 3/6
Tumor volume (cm^3) [2, 8]: 0.01 cm^3
Body weight of mice ([2]; 8 mg/kg iv x7 qd, 7 d): 19 ± 0.6 g
Body weight of mice ([2]; 8 mg/kg iv x7 qd, 14 d): 20.5 ± 1 g
Tumor volume (cm^3) ([2]; 8 mg/kg iv x7 qd, 14 d): 0.048 ± 0.03 cm^3
Body weight of mice ([2]; 8 mg/kg iv x7 qd, 21 d): 21.2 ± 0.8 g
Tumor volume (cm^3) ([2]; 8 mg/kg iv x7 qd, 21 d): 0.249 ± 0.05 cm^3
Tumor volume (cm^3) ([2]; 8 mg/kg iv x7 qd, 24 d): 0.89 ± 0.39 cm^3
Body weight of mice ([2]; 8 mg/kg iv x7 qd, 24 d (end)): 22.2 g and 22.2 ± 0.8 g
Tumor weight ([2]; 8 mg/kg/d iv x7 qd): 0.942 ± 0.14 g
tumor inhibition rate % ([2]; 8 mg/kg/d iv x7 qd): 33.19%
Mice with palpable tumor / total mice [2, 9]: 2/6
Tumor volume (cm^3) [2, 9]: 0.01 cm^3
Body weight of mice ([2]; 20 mg/kg iv x7 qd, 7 d): 18.3 ± 0.8 g
Body weight of mice ([2]; 20 mg/kg iv x7 qd, 14 d): 19.8 ± 0.8 g
Tumor volume (cm^3) ([2]; 20 mg/kg iv x7 qd, 14 d): 0.03 ± 0.02 cm^3
Body weight of mice ([2]; 20 mg/kg iv x7 qd, 21 d): 20.5 ± 1 g
Tumor volume (cm^3) ([2]; 20 mg/kg iv x7 qd, 21 d): 0.206 ± 0.03 cm^3
Tumor volume (cm^3) ([2]; 20 mg/kg iv x7 qd, 24 d): 0.402 ± 0.1 cm^3
Body weight of mice ([2]; 20 mg/kg iv x7 qd, 24 d (end)): 22.0 g and 22.0 ± 1.4 g
Tumor weight ([2]; 20 mg/kg/d iv x7 qd): 0.752 ± 0.12 g
tumor inhibition rate % ([2]; 20 mg/kg/d iv x7 qd): 46.67%
Body weight of mice ([2]; 50 mg/kg iv x7 qd, 0 d (beginning)): 17.2 g and 17.2 ± 0.8 g
Mice with palpable tumor / total mice [2, 10]: 1/6
Tumor volume (cm^3) [2, 10]: 0.01 cm^3
Body weight of mice ([2]; 50 mg/kg iv x7 qd, 7 d): 16.7 ± 0.8 g
Body weight of mice ([2]; 50 mg/kg iv x7 qd, 14 d): 17.8 ± 1.5 g
Mice with palpable tumor / total mice ([2]; 50 mg/kg iv x7 qd, 14 d): 6/6
Tumor volume (cm^3) ([2]; 50 mg/kg iv x7 qd, 14 d): 0.01 cm^3
Body weight of mice ([2]; 50 mg/kg iv x7 qd, 21 d): 19.3 ± 1 g
Tumor volume (cm^3) ([2]; 50 mg/kg iv x7 qd, 21 d): 0.148 ± 0.02 cm^3
Tumor volume (cm^3) ([2]; 50 mg/kg iv x7 qd, 24 d): 0.316 ± 0.06 cm^3
Body weight of mice ([2]; 50 mg/kg iv x7 qd, 24 d (end)): 21.3 g and 21.3 ± 1.2 g
Tumor weight ([2]; 50 mg/kg/d iv x7 qd): 0.657 ± 0.13 g
tumor inhibition rate % ([2]; 50 mg/kg/d iv x7 qd): 53.40%
Effect on extent of microtubule assembly ([3]; 27 uM): marked inhibitory effect
Effect on microtubule assembly ([3]; lower dosages): minimal effects upon microtubule assembly
Animal No. beginning/end (survival) ([4]; 6.25 mg/kg/d iv x7 qd): 10/10
Animal weight (g) beginning ([4]; 6.25 mg/kg/d iv x7 qd): 20.3 g
Animal weight (g) end ([4]; 6.25 mg/kg/d iv x7 qd): 24.4 g
Tumor weight ([4]; 6.25 mg/kg/d iv x7 qd): 1.78 ± 0.24 g
Inhibition rate (%) ([4]; 6.25 mg/kg/d iv x7 qd): 34.32%
Animal No. beginning/end (survival) ([4]; 25 mg/kg/d iv x7 qd): 10/10
Animal weight (g) beginning ([4]; 25 mg/kg/d iv x7 qd): 20.1 g
Animal weight (g) end ([4]; 25 mg/kg/d iv x7 qd): 24.2 g
Tumor weight ([4]; 25 mg/kg/d iv x7 qd): 1.21 ± 0.22 g
Inhibition rate (%) ([4]; 25 mg/kg/d iv x7 qd): 55.35%
Animal No. beginning/end (survival) ([4]; 100 mg/kg/d iv x7 qd): 10/8
Animal weight (g) beginning ([4]; 100 mg/kg/d iv x7 qd): 20.6 g
Animal weight (g) end ([4]; 100 mg/kg/d iv x7 qd): 23.4 g
Tumor weight ([4]; 100 mg/kg/d iv x7 qd (text: administered only 5 times because of toxicity)): 1.08 ± 0.17 g
Inhibition rate (%) ([4]; 100 mg/kg/d iv x7 qd (text: only 5 times because of toxicity)): 60.15%
